In ChEMBL document CHEMBL3351453 (2014):
Calls of active or inactive are those of the source. The calls are words filed in the database; no cut-off is given here.

Legend:
BFTC-905 = details: Homo sapiens, at 20 to 80 µM
Description: Cytotoxicity against human BFTC905 cells assessed as reduction in cell viability at 20 to 80 uM after 24 hrs by MTT assay

RKO = details: Homo sapiens, at 20 to 80 µM
Description: Cytotoxicity against human RKO cells assessed as reduction in cell viability at 20 to 80 uM after 24 hrs by MTT assay

A549 [1] = test: Cytotoxicity against human A549 cells assessed as cell viability at >40 uM after 24 hrs by MTT assay relative to gefitinib; format: functional
A549 [2] = test: Cytotoxicity against human A549 cells assessed as cell viability at 20 uM after 24 hrs by MTT assay (reference value: 100%); format: functional; details: A549, 24 h, read-out: Activity
A549 [3] = test: Cytotoxicity against human A549 cells assessed as cell viability at 10 uM after 24 hrs by MTT assay (reference value: 100%); format: functional; details: A549, 24 h, read-out: Activity
A549 [4] = test: Cytotoxicity against human A549 cells assessed as cell viability at 60 uM after 24 hrs by MTT assay (reference value: 100%); format: functional; details: A549, 24 h, read-out: Activity
A549 [5] = test: Cytotoxicity against human A549 cells assessed as cell viability at 40 uM after 24 hrs by MTT assay (reference value: 100%); format: functional; details: A549, 24 h, read-out: Activity
A549 [6] = test: Cytotoxicity against human A549 cells assessed as cell viability at 80 uM after 24 hrs by MTT assay (reference value: 100%); format: functional; details: A549, 24 h, read-out: Activity

For `COc1cc2ncnc(Nc3ccc(F)c(Cl)c3)c2cc1OCCCN1CCN(C(=O)CCC(=O)O)CC1`, the inhibition (BFTC-905) was “Active” and the inhibition (RKO) was “Active”.

Work on `CCCCCCCCCCCCOC(=O)CCC(=O)N1CCN(CCCOc2cc3c(Nc4ccc(F)c(Cl)c4)ncnc3cc2OC)CC1` yielded a Ratio (A549 [1]) of 15.

`CCCCCCCCCCOC(=O)CCC(=O)N1CCN(CCCOc2cc3c(Nc4ccc(F)c(Cl)c4)ncnc3cc2OC)CC1` showed a Ratio (A549 [1]) of 15.

Compound `CCCCCCCCCCCOC(=O)CCC(=O)N1CCN(CCCOc2cc3c(Nc4ccc(F)c(Cl)c4)ncnc3cc2OC)CC1` has a Ratio (A549 [1]) of 15.

For `COC(=O)CCC(=O)N1CCN(CCCOc2cc3c(Nc4ccc(F)c(Cl)c4)ncnc3cc2OC)CC1`, the inhibition (BFTC-905) was “Active” and the inhibition (RKO) was “Active”.

`COc1cc2ncnc(Nc3ccc(F)c(Cl)c3)c2cc1OCCCN1CCOC(=O)C1` showed a viability at 20 µM (A549 [2]) of 93.1%, a viability at 10 µM (A549 [3]) of 96.1% and a viability at 60 µM (A549 [4]) of 94.1%. It also gave a viability at 40 µM (A549 [5]) of 91% and a viability at 80 µM (A549 [6]) of 94.9%.
